Results on 26 compounds are retold here after patent publication US20130116241A1, “NOVEL INHIBITOR COMPOUNDS OF PHOSPHODIESTERASE TYPE 10A” (AbbVie Inc., priority 2011, published 2013).

Structures can show the parent of a compound that is named as a salt.

Assay [1] concerns rats. As to conditions: cited from earlier work.
Assay [2] concerns rats. As to conditions: cited from earlier work. This is another data set of the same source.
Assay [3] deals with rats. The note with it: rat, in vivo; cited from earlier work.
The target of the next assay is human PDE10A (UniProt Q9Y233). The assay is described as follows: Measurement of PDE activity (recombinant enzyme, HTRF cAMP kit). The format is biochemical. The note with it: Table 1, substrate 20 nM for PDE10, 60 minutes at 29 C, read-out: IC50. The method, boiled down: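 Recombinant human PDE10A (10–250 pM range across PDEs) with 20 nM cAMP substrate in 20 mM Tris-HCl pH 7.5, 10 mM MgCl2, 0.1% BSA, compound pre-mixed with enzyme. Ran 60 min at 29 °C. Remaining cAMP read by HTRF, converted to % of uninhibited activity, and IC50 fitted.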
A general note: In TR-FRET formats the signal depends on donor and acceptor labels being close together.

Chain of human PDE10A (Q9Y233 290-1055 limits assumed): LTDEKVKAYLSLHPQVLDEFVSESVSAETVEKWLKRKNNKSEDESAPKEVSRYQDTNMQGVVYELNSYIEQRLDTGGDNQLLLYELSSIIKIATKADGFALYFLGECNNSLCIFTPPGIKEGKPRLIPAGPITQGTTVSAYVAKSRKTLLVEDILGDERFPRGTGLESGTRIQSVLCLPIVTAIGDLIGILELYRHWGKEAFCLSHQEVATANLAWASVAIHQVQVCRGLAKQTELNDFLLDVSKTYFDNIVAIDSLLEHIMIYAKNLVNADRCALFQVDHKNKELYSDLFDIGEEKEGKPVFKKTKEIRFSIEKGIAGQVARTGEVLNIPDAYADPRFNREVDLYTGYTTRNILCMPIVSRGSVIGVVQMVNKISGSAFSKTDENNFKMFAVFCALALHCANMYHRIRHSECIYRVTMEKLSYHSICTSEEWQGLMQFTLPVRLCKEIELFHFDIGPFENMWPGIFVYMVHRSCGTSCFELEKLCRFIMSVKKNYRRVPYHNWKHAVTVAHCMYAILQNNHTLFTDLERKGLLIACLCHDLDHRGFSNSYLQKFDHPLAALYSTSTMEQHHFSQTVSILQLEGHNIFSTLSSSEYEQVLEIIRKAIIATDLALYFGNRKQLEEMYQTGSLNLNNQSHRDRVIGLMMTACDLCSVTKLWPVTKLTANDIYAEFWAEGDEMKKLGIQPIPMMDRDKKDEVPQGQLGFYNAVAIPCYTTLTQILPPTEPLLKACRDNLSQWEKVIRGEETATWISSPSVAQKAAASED

Take `COc1ccc(Cc2nccc3cc(OC)c(OC)cc23)cc1OC` [Papaverine, papaverine]: in the assay with rats [1] (compound alone), the “catalepsy on its own” value is “did not cause catalepsy on its own”. Further, the “cataleptic effect of the D2 receptor antagonist haloperidol” value in the assay with rats [1] (with haloperidol) is “potentiated the cataleptic effect”. Also, the “hyperactivity induced by PCP” value with rats [2] is “reduced hyperactivity”. Besides, the “reduction of amphetamine-induced hyperactivity” value in the assay with rats [3] was “insignificant”.
Consider `CN1CC(Nc2cccc3cnn(CCc4cn5ccccc5n4)c(=O)c23)C1` [compound 385, 2-[2-(imidazo[1,2-a]pyridin-2-yl)ethyl]-8-[(1-methylazetidin-3-yl)amino]phthalazin-1(2H)-one], for which, on human PDE10A, the IC50 (commonly the point on the concentration scale where inhibition reaches its midpoint) was 0.2 to 0.5 µM.
The same measure, in the same setting: next, `CN(c1cccc2cnn(CCc3cn4ccccc4n3)c(=O)c12)C1COC1` [compound 387, 2-[2-(imidazo[1,2-a]pyridin-2-yl)ethyl]-8-[methyl(oxetan-3-yl)amino]phthalazin-1(2H)-one]: under 0.1 µM; `O=c1c2c(NC3CCNCC3)cccc2cnn1CCc1cn2ccccc2n1` [compound 388, dihydrochloride]: under 0.1 µM.
Same read-out and setting: next, `CC(=O)N1CCCC(Nc2cccc3cnn(CCc4cn5ccccc5n4)c(=O)c23)C1` (centres unmarked) [compound 389, hydrochloride]: 0.1 to 0.2 µM; `CC(=O)N1CCC(Nc2cccc3cnn(CCc4cn5ccccc5n4)c(=O)c23)CC1` [compound 390, 8-[(1-acetylpiperidin-4-yl)amino]-2-[2-(imidazo[1,2-a]pyridin-2-yl)ethyl]phthalazin-1(2H)-one]: 0.2 to 0.5 µM.
Still for that read-out and setting: for `O=c1c2c(NC3CCOC3)cccc2cnn1CCc1cn2ccccc2n1` (centres unmarked) [compound 391, 2-[2-(imidazo[1,2-a]pyridin-2-yl)ethyl]-8-(tetrahydrofuran-3-ylamino)phthalazin-1(2H)-one] the value was under 0.1 µM.
Consider `O=c1c2c(NC3CCCOC3)cccc2cnn1CCc1cn2ccccc2n1` (centres unmarked) [compound 392, hydrochloride], for which the IC50 on human PDE10A is under 0.1 µM.
The same measure, in the same setting: next, `O=c1c2c(NC3CCCNC3)cccc2cnn1CCc1cn2ccccc2n1` (centres unmarked) [compound 393, dihydrochloride]: under 0.1 µM.
`CN(CC1(C)COC1)c1cccc2cnn(CCc3cn4ccccc4n3)c(=O)c12` [compound 394, 2-[2-(imidazo[1,2-a]pyridin-2-yl)ethyl]-8-{methyl[(3-methyloxetan-3-yl)methyl]amino}phthalazin-1(2H)-one]: the IC50 on human PDE10A fell in the range of 0.2 to 0.5 µM.
On the same count and under the same terms, for `O=c1c2c(NC3COC3)cccc2cnn1CCc1cn2ccccc2n1` [compound 395, 2-[2-(imidazo[1,2-a]pyridin-2-yl)ethyl]-8-(oxetan-3-ylamino)phthalazin-1(2H)-one] the value was under 0.1 µM; for `O=c1c2cccc(N3CCOCC3)c2cnn1CCc1ccc2ccccc2n1` [compound 397, hydrochloride], under 0.1 µM.
Same read-out and setting: next, `O=c1c2cccc(-c3ccncc3)c2cnn1CCc1nc2ccccc2[nH]1` [compound 398, 2-[2-(1H-benzimidazol-2-yl)ethyl]-5-(pyridin-4-yl)phthalazin-1(2H)-one]: 0.1 to 0.2 µM.
On to `O=c1c2ccccc2c(-c2cccnc2)nn1CCc1ccc2ccccc2n1` [compound 399, 4-(pyridin-3-yl)-2-[2-(quinolin-2-yl)ethyl]phthalazin-1(2H)-one], for which the IC50 at human PDE10A is under 0.1 µM.
The same measure, in the same setting: next, `O=c1c2cccc(-c3ccncc3)c2cnn1CCc1cn2ccccc2n1` [compound 401, 2-[2-(imidazo[1,2-a]pyridin-2-yl)ethyl]-5-(pyridin-4-yl)phthalazin-1(2H)-one]: under 0.1 µM; `O=c1c2cccc(-c3cccnc3)c2cnn1CCc1ccc2ccccc2n1` [compound 402, 5-(pyridin-3-yl)-2-[2-(quinolin-2-yl)ethyl]phthalazin-1(2H)-one]: under 0.1 µM; `CC1(CNc2cccc3cnn(CCc4cn5ccccc5n4)c(=O)c23)COC1` [compound 403]: under 0.1 µM.
Turning to `O=c1c2c(-c3ccncc3)ccnc2cnn1CCc1ccc2ccccc2n1` [compound 404, 4-(pyridin-4-yl)-6-[2-(quinolin-2-yl)ethyl]pyrido[2,3-d]pyridazin-5(6H)-one], the IC50 at human PDE10A was under 0.1 µM.
Still for that read-out and setting: for `O=c1c2c(N3CCOCC3)ccnc2cnn1CCc1ccc2ccccc2n1` [compound 405, 4-(morpholin-4-yl)-6-[2-(quinolin-2-yl)ethyl]pyrido[2,3-d]pyridazin-5(6H)-one] the value was under 0.1 µM.
Consider `O=c1c2c(NC3COC3)ccnc2cnn1CCc1ccc2ccccc2n1` [compound 406, 4-(oxetan-3-ylamino)-6-[2-(quinolin-2-yl)ethyl]pyrido[2,3-d]pyridazin-5(6H)-one], for which, at human PDE10A, the IC50 was under 0.1 µM.
The same measure, in the same setting: for `COc1ccc2nc(/C=C/n3ccc4scc(-c5ccncc5)c4c3=O)ccc2c1` [compound 410] the value was under 0.1 µM; for `O=c1c2c(-c3ccncc3)cccc2ccn1/C=C/c1ncc2ccccc2n1` [compound 411, 8-(pyridin-4-yl)-2-[(E)-2-(quinazolin-2-yl)ethenyl]isoquinolin-1(2H)-one], 0.1 to 0.2 µM; for `O=c1c2c(-c3ccncc3)csc2ccn1/C=C/c1ccc2cc(Cl)ccc2n1` [compound 412, 5-[(E)-2-(6-chloroquinolin-2-yl)ethenyl]-3-(pyridin-4-yl)thieno[3,2-c]pyridin-4(5H)-one], under 0.1 µM.
With `Cc1cc2ccccc2nc1/C=C/n1ccc2scc(-c3ccncc3)c2c1=O` [compound 413, 5-[(E)-2-(3-methylquinolin-2-yl)ethenyl]-3-(pyridin-4-yl)thieno[3,2-c]pyridin-4(5H)-one], the IC50 on human PDE10A was under 0.1 µM.
On the same count and under the same terms, next, `O=c1c2c(-c3ccncc3)csc2ccn1/C=C/c1nc2ccccc2s1` [compound 415, 5-[(E)-2-(1,3-benzothiazol-2-yl)ethenyl]-3-(pyridin-4-yl)thieno[3,2-c]pyridin-4(5H)-one]: under 0.1 µM.
Same read-out and setting: for `O=c1c2c(-c3ccncc3)csc2ccn1/C=C/c1ccc2ccccc2n1` [compound 416, 3-(pyridin-4-yl)-5-[(E)-2-(quinolin-2-yl)ethenyl]thieno[3,2-c]pyridin-4(5H)-one] the value was under 0.1 µM.
